Laboratory results published in US6610703B1, “Method for treatment of glycolipid storage diseases” (G.D. Searle & Co., priority 1998, dated 2003).
Values belong to the molecule of their own block, whether it stands above or below them.

Tests used:
glycolipid biosynthesis = conditions: according to U.S. Pat. No. 5,472,969, cited from earlier work; for dose required / activity against glycolipid biosynthesis: unit not given
[1] = Organ distribution of radiolabelled compound in mouse after oral gavage; assay type: in vivo; conditions: for % recovered radioactivity, Brain / % recovered radioactivity, Liver: normal mouse, gavage; for distribution in mouse liver (deposition and clearance): oral gavage, 30, 60 and 90 minutes (FIG. 10)
Description: Mouse body fluids and organs were collected for different times after gavage with radiolabelled compound. Radioactivity in each sample was determined and expressed as a percentage of radio-activity recovered. Solid bars, NN-DNJ, hatched bars, NB-DNJ.
The radioactivity recovered (%) is plotted against N-alkyl chain length (C4 to C18) for 30 minutes (clear bars), 60 minutes (shaded bars) and 90 minutes (filled, black bars). […] Short chain compounds (C4-C6) are rapidly cleared in a time-dependent manner. […] The C12 to C18 analogs show the reverse trend, i.e., reduced appearance in the liver but this increases with time.
The radioactivity recovered (%) is plotted against N-alkyl chain length (C4 to C18) for 30 minutes (clear bars), 60 minutes (shaded bars) and 90 minutes (filled, black bars).
FIG. 12 is a series of four bar charts, A, B, C and D, in which radioactivity (cpm) found in the liver is plotted against time post gavage in hours (h) with four different N-alkyl analogs of deoxynojirimycin (DNJ). The four analogs shown are:; FIG. 12A, N-butyl(C4); FIG. 12B, N-nonyl (C9); FIG. 12C, N-dodecyl(C12); FIG. 12D, N-cis-13-octadecenyl (C18).
FIG. 13 is a series of four bar charts, A, B, C and D, in which radioactivity (cpm) found in the brain is plotted against time post gavage in hours (h) with the same analog compounds as in FIG. 12. The four analogs shown are: FIG. 13A, N-butyl (C4); FIG. 13B, N-nonyl (C9); FIG. 13C, N-dodecyl (C12); FIG. 13D, N-cis-13-octadecenyl (C18).
Further evidence that longer alkyl chains are taken up much better has been obtained by in vivo studies with mouse.

Hepatitis B virus (HBV) = conditions: Block et al., Nature Medicine 1998; cited from earlier work
[2] = tested on: human myeloid (HL-60) cells; assay: Inhibition of glycolipid biosynthesis in HL-60 cells (radiolabelled palmitic acid, TLC, scanning densitometry); assay type: cell-based; conditions: for times more sensitive HL-60 cells than CHO cells: HL-60 versus CHO cells
Description: Cells were cultured for four days in the presence of radiolabelled palmitic acid and the following concentrations of compound:
After extraction the radioactively labelled glycolipids were separated by TLC and visualized by radioautography.
Chinese Hamster Ovary (CHO) cells and human myeloid (HL-60) cells grown in the presence of varying concentrations of inhibitor in addition to a precursor (radiolabelled palmitic acid) of glycolipid biosynthesis were treated with solvents to extract the glycolipids by the procedure described by Platt et al., J. Biol. Chem. 269, 8362-8365 (1994).
The radiolabelled lipids were separated by TLC (FIG. 1) and bands corresponding to glucosylceramide and lactosyl-ceramide were quantitated by scanning densitometry to estimate the reduction in glycolipid biosynthesis.

Serum Protein = assay: Imino sugar (N-alkyl DNJ) binding to serum protein; assay type: in vitro ADME; conditions: protein bound versus non-bound radioactivity (FIG. 14)
Excerpt: The percentage compound radioactivity is plotted against N-alkyl chain length (C4 to C18) with the protein bound percentage shown by open circles and the non-bound percentage shown by filled circles. […] Short chain compounds (C4-C6) bind poorly but those larger than C10 are almost completely bound to protein.

[3] = tested on: CHO, MDBK and HepG2 cells; assay: Cell-associated radioactivity (uptake) of radiolabelled compound in cultured cells; assay type: in vitro ADME; conditions: MDBK and HepG2, incubated up to 24 hours
[4] = molecular target: T1, HL-60 cell ceramide glucosyltransferase (Homo sapiens, UniProt Q16739); assay: In vitro inhibition of HL-60 cell ceramide glucosyltransferase activity; assay type: biochemical; conditions: C4 to C18 series (FIG. 8)
T1 construct: endogenous in cells; host or cells: HL-60 (human myeloid) cells
T1 sequence (Q16739 1-394): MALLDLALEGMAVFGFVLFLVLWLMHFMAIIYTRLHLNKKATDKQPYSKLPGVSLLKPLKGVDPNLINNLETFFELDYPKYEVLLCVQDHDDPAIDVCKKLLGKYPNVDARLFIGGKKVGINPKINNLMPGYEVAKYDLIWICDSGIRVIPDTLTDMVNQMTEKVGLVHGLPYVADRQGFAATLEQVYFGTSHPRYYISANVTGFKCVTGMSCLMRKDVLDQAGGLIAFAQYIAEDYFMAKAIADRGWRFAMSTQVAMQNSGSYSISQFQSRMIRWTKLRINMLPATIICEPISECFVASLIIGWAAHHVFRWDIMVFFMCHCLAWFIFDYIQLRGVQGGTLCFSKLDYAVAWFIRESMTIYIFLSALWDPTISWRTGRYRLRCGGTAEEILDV

Structure (SMILES): CN1C[C@H](O)[C@@H](O)[C@H](O)[C@H]1CO [N-methyl analog]
dose required / activity against glycolipid biosynthesis (glycolipid biosynthesis): inactive

deposition in the liver ([1]; mouse, 24 h post gavage (FIG. 12)): significant deposition
Structure (SMILES): CCCC/C=C\CCCCCCCCCCCCN1C[C@H](O)[C@@H](O)[C@H](O)[C@H]1CO [C18]

Structure (SMILES): CCCCCCCCCN1C[C@H](O)[C@@H](O)[C@H](O)[C@H]1CO [N-nonyl-DNJ, N-nonyl-1.5-dideoxy-1,5-imino-D-glucitol]
inhibition of Hepatitis B virus (Hepatitis B virus (HBV)): effective as an inhibitor
times more sensitive HL-60 cells than CHO cells [2]: 100 times
binding to serum protein (Serum Protein): favor equally, protein and solution phase
% recovered radioactivity, Brain ([1]; 30 min): 0.4%
% recovered radioactivity, Liver ([1]; 30 min): 27.1%
% recovered radioactivity, Brain ([1]; 60 min): 0.3%
% recovered radioactivity, Liver ([1]; 60 min): 12.6%
% recovered radioactivity, Brain ([1]; 90 min): 0.4%
% recovered radioactivity, Liver ([1]; 90 min): 13.5%
distribution in mouse liver (deposition and clearance) [1]: increased deposition and slower clearance
increase of cell-associated radioactivity versus N-butyl-DNJ [3]: 3.5-5 fold

inhibition of ceramide glucosyltransferase versus N-alkyl chain length [4]: optimal
Structure (SMILES): CCCCCCCCCCN1C[C@H](O)[C@@H](O)[C@H](O)[C@H]1CO [N-decyl-DNJ]
inhibition at times lower concentrations than N-butyl-DNJ ([2]; HL-60 cell-based assay): 50 times
distribution in mouse liver (deposition and clearance) [1]: increased deposition and slower clearance

time after which the majority of radioactivity is found in the liver ([1]; mouse, post gavage (FIG. 12)): 1.5 h
% recovered radioactivity, Brain ([1]; 30 min): 0.2%
% recovered radioactivity, Liver ([1]; 30 min): 8.5%
% recovered radioactivity, Brain ([1]; 60 min): 0.1%
% recovered radioactivity, Liver ([1]; 60 min): 2.8%
% recovered radioactivity, Brain ([1]; 90 min): 0.03%
% recovered radioactivity, Liver ([1]; 90 min): 0.9%
Structure (SMILES): CCCCN1C[C@H](O)[C@@H](O)[C@H](O)[C@H]1CO [N-butyl-DNJ, N-butyldeoxynojirimycin, reference compound]
times more sensitive HL-60 cells than CHO cells [2]: more than 10 times
dose required / activity against glycolipid biosynthesis (glycolipid biosynthesis): 0.01-0.1

Structure (SMILES): CCCCCCCCN1CC(O)C(O)C(O)C1CO (stereo not drawn) [C8]
binding to serum protein (Serum Protein): favor equally, protein and solution phase

Structure (SMILES): CCCCCCN1C[C@H](O)[C@@H](O)[C@H](O)[C@H]1CO [N-hexyl derivative of DNJ]
dose required for activity against glycolipid biosynthesis (glycolipid biosynthesis): 0.2 mg/mL
